Test results from PubChem BioAssay (NCI).
Where “and” joins values, the source holds several entries; their conditions need not be identical. Identical values can stand only once.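 Grown in 96-well plates, cells were treated for 48 hours with each compound at five concentrations. Insufficient inhibition: endpoint recorded as highest concentration tested. GI50 marks 50% less growth. TGI: total growth inhibition.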

Assays:
Assay in all cases: NCI tumour cell line growth inhibition, 48 h
RXF-631 renal = system: RXF-631 renal
LXFL 529 NSCLC = system: LXFL 529 NSCLC
XF 498 CNS = system: XF 498 CNS
SN12K1 renal = system: SN12K1 renal
P388/ADR leukemia = system: P388/ADR leukemia
P388 leukemia = system: P388 leukemia

Row | Compound | TGI (LXFL 529 NSCLC) [µM] | TGI (XF 498 CNS) [µM] | TGI (SN12K1 renal) | TGI (P388/ADR leukemia) [µM] | TGI (P388 leukemia) [µM] | also measured
1 | COc1cccc2c1C(=O)c1c(O)c3c(c(O)c1C2=O)C[C@@](O)(C(=O)CO)C[C@@H]3OC1CC(N)C(OC)C(C)O1 (some centres not stated) | 0.432 |  |  |  |  | TGI (RXF-631 renal): 0.747 µM
2 | CC#C[P+](c1ccccc1)(c1ccccc1)c1ccccc1 | 12.6 | 7.26 |  |  |  | 
3 | CC(C)=CCc1c(O)ccc2ccc(=O)oc12 |  |  | > 100 µM | > 100 | > 100 | 
4 | CCCC(O)C(NC(=O)CCl)C(=O)O (configuration not stated) |  | > 100 | > 100 µM | > 100 | > 100 | 
5 | CC12CCC3C(CCC4=CC(O)CCC43C=O)C1(O)CCC2c1ccc(=O)oc1 (configuration not stated) |  |  | 0.0286 µM and 0.0531 µM |  |  | GI50 (SN12K1 renal): 0.00753 µM; GI50 (P388/ADR leukemia): 89 µM; GI50 (P388 leukemia): 80.6 µM
6 | COc1cc(/C=C/C(=O)O)ccc1C(=O)OCc1ccccc1 |  | > 100 | > 100 µM | > 100 | > 100 | 
7 | COc1cc2c(cc1O)C1C(O)C(O)C=C3CCN(C2)C31 (configuration not stated) | 34.9 | 4.36 |  |  |  | TGI (RXF-631 renal): 28.2 µM
